Laboratory results published in PubChem BioAssay (NCI).
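48-hour exposure; five concentrations; linearly interpolated endpoints. GI50 is the concentration that inhibits growth by half. TGI denotes the concentration required for complete inhibition of growth.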

How the values were obtained:
Assay in all cases: growth of human tumour cells (NCI), 48 h
HCT-15 colon = test system: HCT-15 colon
NCI-H226 lung = test system: NCI-H226 lung
SF-539 CNS = test system: SF-539 CNS
NCI/ADR-RES ovarian = test system: NCI/ADR-RES ovarian
MDA-MB-435 = test system: MDA-MB-435
OVCAR-8 ovarian = test system: OVCAR-8 ovarian
NCI-H23 lung = test system: NCI-H23 lung
RPMI-8226 leukemia = test system: RPMI-8226 leukemia
OVCAR-3 ovarian = test system: OVCAR-3 ovarian
HCT-116 colon = test system: HCT-116 colon
SW-620 colon = test system: SW-620 colon
NCI-H460 lung = test system: NCI-H460 lung
SN12C renal = test system: SN12C renal
A549 NSCLC = test system: A549 NSCLC
NCI-H522 lung = test system: NCI-H522 lung
UACC-257 melanoma = test system: UACC-257 melanoma
A498 renal = test system: A498 renal
786-0 renal = test system: 786-0 renal
U251 CNS = test system: U251 CNS
PC-3 prostate = test system: PC-3 prostate
UACC-62 melanoma = test system: UACC-62 melanoma
COLO 205 colon = test system: COLO 205 colon
SNB-19 CNS = test system: SNB-19 CNS
OVCAR-5 ovarian = test system: OVCAR-5 ovarian
SK-MEL-2 melanoma = test system: SK-MEL-2 melanoma
SR leukemia = test system: SR leukemia
KM12 colon = test system: KM12 colon
M14 melanoma = test system: M14 melanoma
MCF7 breast = test system: MCF7 breast
HS 578T breast = test system: HS 578T breast
MDA-MB-231 breast = test system: MDA-MB-231 breast
HL-60(TB) leukemia = test system: HL-60(TB) leukemia
DU-145 prostate = test system: DU-145 prostate
ACHN renal = test system: ACHN renal
UO-31 renal = test system: UO-31 renal
K-562 leukemia = test system: K-562 leukemia
T-47D breast = test system: T-47D breast
EKVX NSCLC = test system: EKVX NSCLC
SNB-75 CNS = test system: SNB-75 CNS
SK-MEL-28 melanoma = test system: SK-MEL-28 melanoma
HT29 colon = test system: HT29 colon
HOP-62 NSCLC = test system: HOP-62 NSCLC
OVCAR-4 ovarian = test system: OVCAR-4 ovarian
SK-MEL-5 melanoma = test system: SK-MEL-5 melanoma
SF-268 CNS = test system: SF-268 CNS
HCC-2998 colon = test system: HCC-2998 colon
BT-549 breast = test system: BT-549 breast
CCRF-CEM leukemia = test system: CCRF-CEM leukemia
RXF 393 renal = test system: RXF 393 renal
CAKI-1 renal = test system: CAKI-1 renal
TK-10 renal = test system: TK-10 renal
SK-OV-3 ovarian = test system: SK-OV-3 ovarian
LOX IMVI melanoma = test system: LOX IMVI melanoma
MALME-3M melanoma = test system: MALME-3M melanoma
IGROV1 ovarian = test system: IGROV1 ovarian
HOP-92 NSCLC = test system: HOP-92 NSCLC
SF-295 CNS = test system: SF-295 CNS

Compound `Cc1ccc(C2=C(c3ccc(C)cc3)C3(c4ccc(C)cc4)C4C(=O)OC(=O)C4C2(c2ccc(C)cc2)S3=O)cc1` (centres undefined) has a GI50 (HCT-15 colon) of 33.5 µM, a TGI (HCT-15 colon) greater than 100 µM and a GI50 (NCI-H226 lung) of 11 µM. For the same compound, the TGI (NCI-H226 lung) was 48.3 µM, the GI50 (SF-539 CNS) was 6.3 µM and the TGI (SF-539 CNS) was 31.9 µM. It also gave a GI50 (NCI/ADR-RES ovarian) of 46.4 µM, a TGI (NCI/ADR-RES ovarian) greater than 100 µM and a GI50 (MDA-MB-435) of 17.5 µM. For the same compound, the TGI (MDA-MB-435) was 63.7 µM, the GI50 (OVCAR-8 ovarian) was 25.7 µM and the TGI (OVCAR-8 ovarian) was greater than 100 µM. For the same compound, the GI50 (NCI-H23 lung) was 18.2 µM, the TGI (NCI-H23 lung) was 41.8 µM and the GI50 (RPMI-8226 leukemia) was 21.2 µM. For the same compound, the TGI (RPMI-8226 leukemia) was 89.5 µM, the GI50 (OVCAR-3 ovarian) was 15.5 µM and the TGI (OVCAR-3 ovarian) was 39.4 µM. The GI50 (HCT-116 colon) was 23.7 µM, the TGI (HCT-116 colon) was 92.5 µM and the GI50 (SW-620 colon) was 38.1 µM. The TGI (SW-620 colon) was greater than 100 µM, the GI50 (NCI-H460 lung) was 24.9 µM and the TGI (NCI-H460 lung) was greater than 100 µM. For the same compound, the GI50 (SN12C renal) was 25.1 µM, the TGI (SN12C renal) was 87.9 µM and the GI50 (A549 NSCLC) was 32 µM. The TGI (A549 NSCLC) was greater than 100 µM, the GI50 (NCI-H522 lung) was 34 µM and the TGI (NCI-H522 lung) was greater than 100 µM. The GI50 (UACC-257 melanoma) was greater than 100 µM, the TGI (UACC-257 melanoma) was greater than 100 µM and the GI50 (A498 renal) was 21.9 µM. For the same compound, the TGI (A498 renal) was 63.4 µM, the GI50 (786-0 renal) was 6.91 µM and the TGI (786-0 renal) was 27.7 µM. For the same compound, the GI50 (U251 CNS) was 6.31 µM, the TGI (U251 CNS) was 24.9 µM and the GI50 (PC-3 prostate) was 25 µM. For the same compound, the TGI (PC-3 prostate) was greater than 100 µM, the GI50 (UACC-62 melanoma) was 3.57 µM and the TGI (UACC-62 melanoma) was 19.6 µM. It also gave a GI50 (COLO 205 colon) of 51.2 µM, a TGI (COLO 205 colon) greater than 100 µM and a GI50 (SNB-19 CNS) of 20.9 µM. For the same compound, the TGI (SNB-19 CNS) was greater than 100 µM, the GI50 (OVCAR-5 ovarian) was 96.4 µM and the TGI (OVCAR-5 ovarian) was greater than 100 µM. For the same compound, the GI50 (SK-MEL-2 melanoma) was 16.2 µM, the TGI (SK-MEL-2 melanoma) was 78.8 µM and the GI50 (SR leukemia) was 25.9 µM. For the same compound, the TGI (SR leukemia) was greater than 100 µM, the GI50 (KM12 colon) was 22.9 µM and the TGI (KM12 colon) was 76.1 µM. The GI50 (M14 melanoma) was 9.7 µM, the TGI (M14 melanoma) was 32.8 µM and the GI50 (MCF7 breast) was 29.2 µM. It also gave a TGI (MCF7 breast) greater than 100 µM, a GI50 (HS 578T breast) of 21.3 µM and a TGI (HS 578T breast) greater than 100 µM. The GI50 (MDA-MB-231 breast) was 15.6 µM, the TGI (MDA-MB-231 breast) was 45.6 µM and the GI50 (HL-60(TB) leukemia) was 25.5 µM. The TGI (HL-60(TB) leukemia) was greater than 100 µM, the GI50 (DU-145 prostate) was 47.6 µM and the TGI (DU-145 prostate) was greater than 100 µM. For the same compound, the GI50 (ACHN renal) was 15.8 µM, the TGI (ACHN renal) was 83.3 µM and the GI50 (UO-31 renal) was 34.3 µM. The TGI (UO-31 renal) was greater than 100 µM, the GI50 (K-562 leukemia) was 27.7 µM and the TGI (K-562 leukemia) was greater than 100 µM. For the same compound, the GI50 (T-47D breast) was greater than 100 µM, the TGI (T-47D breast) was greater than 100 µM and the GI50 (EKVX NSCLC) was 42 µM. For the same compound, the TGI (EKVX NSCLC) was greater than 100 µM, the GI50 (SNB-75 CNS) was 15.3 µM and the TGI (SNB-75 CNS) was 36.8 µM. It also gave a GI50 (SK-MEL-28 melanoma) of 28.8 µM, a TGI (SK-MEL-28 melanoma) of 96.1 µM and a GI50 (HT29 colon) of 25.3 µM. The TGI (HT29 colon) was greater than 100 µM, the GI50 (HOP-62 NSCLC) was 16.4 µM and the TGI (HOP-62 NSCLC) was 42.5 µM. The GI50 (OVCAR-4 ovarian) was 59.6 µM, the TGI (OVCAR-4 ovarian) was greater than 100 µM and the GI50 (SK-MEL-5 melanoma) was 21.3 µM. It also gave a TGI (SK-MEL-5 melanoma) of 57.6 µM, a GI50 (SF-268 CNS) of 38.5 µM and a TGI (SF-268 CNS) greater than 100 µM. For the same compound, the GI50 (HCC-2998 colon) was 21.5 µM, the TGI (HCC-2998 colon) was 55.5 µM and the GI50 (BT-549 breast) was 23.9 µM. The TGI (BT-549 breast) was greater than 100 µM, the GI50 (CCRF-CEM leukemia) was 25.2 µM and the TGI (CCRF-CEM leukemia) was greater than 100 µM. The GI50 (RXF 393 renal) was 13.9 µM, the TGI (RXF 393 renal) was 30.4 µM and the GI50 (CAKI-1 renal) was 26.3 µM. It also gave a TGI (CAKI-1 renal) greater than 100 µM, a GI50 (TK-10 renal) of 38.8 µM and a TGI (TK-10 renal) greater than 100 µM. For the same compound, the GI50 (SK-OV-3 ovarian) was 26.8 µM, the TGI (SK-OV-3 ovarian) was 98.7 µM and the GI50 (LOX IMVI melanoma) was 18.5 µM. It also gave a TGI (LOX IMVI melanoma) of 73.7 µM, a GI50 (MALME-3M melanoma) of 27.9 µM and a TGI (MALME-3M melanoma) of 84 µM. For the same compound, the GI50 (IGROV1 ovarian) was 25.7 µM, the TGI (IGROV1 ovarian) was greater than 100 µM and the GI50 (HOP-92 NSCLC) was 25.3 µM. For the same compound, the TGI (HOP-92 NSCLC) was 89.8 µM, the GI50 (SF-295 CNS) was 13.1 µM and the TGI (SF-295 CNS) was 37.7 µM.
